Measurements from US20260092061A1, “COMPOUNDS FOR TARGETED PROTEIN DEGRADATION” (Amphista Therapeutics Limited, priority 2022, published 2026).
Read-outs that look alike come from different tables or passages of the source.

Target: T1, BRD9 (Homo sapiens, UniProt Q9H8M2)
T1 sequence (Q9H8M2 1-597): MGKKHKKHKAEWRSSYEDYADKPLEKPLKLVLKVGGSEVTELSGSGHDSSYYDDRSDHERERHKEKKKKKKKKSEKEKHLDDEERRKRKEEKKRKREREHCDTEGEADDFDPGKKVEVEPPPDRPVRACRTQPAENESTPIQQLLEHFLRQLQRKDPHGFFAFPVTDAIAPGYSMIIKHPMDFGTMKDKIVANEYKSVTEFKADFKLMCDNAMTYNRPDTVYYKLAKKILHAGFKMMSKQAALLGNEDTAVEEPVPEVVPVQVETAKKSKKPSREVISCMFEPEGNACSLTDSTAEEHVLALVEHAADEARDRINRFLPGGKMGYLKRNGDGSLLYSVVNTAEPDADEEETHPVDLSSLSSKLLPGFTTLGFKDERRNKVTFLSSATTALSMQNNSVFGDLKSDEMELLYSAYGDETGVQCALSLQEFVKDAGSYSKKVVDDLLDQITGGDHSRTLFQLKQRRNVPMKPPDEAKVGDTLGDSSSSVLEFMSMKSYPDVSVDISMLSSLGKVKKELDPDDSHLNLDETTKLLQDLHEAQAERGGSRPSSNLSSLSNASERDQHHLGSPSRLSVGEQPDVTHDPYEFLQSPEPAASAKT
Assay: BRD9 degradation, HiBiT-BRD9 KI HEK293 (LgBiT) cells, NanoGlo Lytic Endpoint assay (Assay Protocol 1)
Type: cell-based
Details: BRD9 degradation; for Dmax at 1 µM: 1 μM compound at 6 h of treatment, read-out: Assay 1 Dmax
Protocol: HiBiT-BRD9 KI HEK293 (LgBiT) Cells (Promega CS3023412) were seeded at 8000 cells per well (38 μL) in sterile white bottom 384 well plates (Invitrogen 164610 or Greiner 781080) and incubated overnight at 37° C. with 5% CO2. The next day, compounds were prepared at 1000× final concentration in DMSO and diluted 1:100 in media (DMEM PAN Biotech P04-03550+10% FBS ATCC 302025). 4 μL compound was added to each well of the cell plate and incubated for 6 h at 37° C. with 5% CO2 BRD9 expression was quantified using the NanoGlo Lytic Endpoint assay (Promega N3050). The lytic buffer was equilibrated to room temperature for 10-15 min before lytic reagent was prepared by adding substrate (1:50) and LgBit protein (1:100) in lytic buffer. 40 μL lytic reagent mix was added to each well of the cel plate and plates were centrifuged briefly at ˜50g. Plates were incubated with shaking (350 RPM) for 12-24 min before reading using the LUM plus module of a BMG Pherastar FSX. Data was analysed using Dotmatics software and % BRD9 remaining was calculated by normalisation to average data from high and low control wells (DMSO treated cels and no cells respectively).

[1] = HEK293, Table 2, Assay Protocol 1
[2] = Table 2, Assay Protocol 1, 6 h of treatment, read-out: Assay 1 DC50

Row | SMILES | Dmax at 1 µM [1] | DC50 [2] | DC50 (Assay protocol 1, read-out: DC50) | Dmax (HEK293, Assay protocol 1, read-out: Dmax)
1 | COc1cc(-c2cn(C)c(=O)c3cnccc23)cc(OC)c1CN1CCN(Cc2ccc(C3CCCN3C(=O)/C(C#N)=C/c3nccs3)cc2)CC1 (mixture of isomers) [Compound A38, (E/Z)-2-(2-(4-((4-(2,6-dimethoxy-4-(2-methyl-1-oxo-1,2-dihydro-2,7-naphthyridin-4-yl)benzyl)piperazin-1-yl)methyl)phenyl)pyrrolidine-1-carbonyl)-3-(thiazol-2-yl)acrylonitrile] | 40 to 70% | 0.00125 to 0.01 µM |  | 
2 | COc1cc(-c2cn(C)c(=O)c3cnccc23)cc(OC)c1CN1C2CC1CN(Cc1cccc3c1CCN(C(=O)/C(C#N)=C/C(C)(C)C)C3C)C2 (mixture of isomers) [Compound A40] | 70 to 75% | 0.01 to 0.025 µM |  | 
3 | COc1cc(-c2cn(C)c(=O)c(C)c2C)cc(OC)c1CN1CCN(Cc2cccc3c2CCN(C(=O)/C(C#N)=C/C2CC2)C3C)CC1 (mixture of isomers) [Compound A44] | 40 to 70% | 0.00125 to 0.01 µM |  | 
4 | COc1cc(-c2cn(C)c(=O)c(C)c2C)cc(OC)c1CN1CCN(Cc2cccc3c2CCN(C(=O)/C(C#N)=C/C2CCC2)C3C)CC1 (mixture of isomers) [Compound A45] | 70 to 75% | 0.00125 to 0.01 µM |  | 
5 | COc1cc(-c2cn(C)c(=O)c3cnccc23)cc(OC)c1CN(C)Cc1ccc2c(c1)CCN(C(=O)/C(C#N)=C/C(C)(C)C)C2C (mixture of isomers) [Compound A46] | 40 to 70% | 0.00125 to 0.01 µM |  | 
6 | COc1cc(-c2cn(C)c(=O)c3cnccc23)cc(OC)c1CN(C)Cc1ccc2c(c1)C(C)N(C(=O)/C(C#N)=C/C(C)(C)C)CC2 (mixture of isomers) [Compound A47, (E/Z)-2-[7-[[2,6-dimethoxy-4-(2-methyl-1-oxo-2,7-naphthyridin-4-yl)phenylmethyl-methyl-amino]methyl]-1-methyl-3,4-dihydro-1H-isoquinoline-2-carbonyl]-4,4-dimethyl-pent-2-enenitrile] | 40 to 70% | 0.01 to 0.025 µM |  | 
7 | COc1cc(-c2cc(C)c(=O)n(C)c2)cc(OC)c1CN1CCN(Cc2cccc3c2CCN(C(=O)/C(C#N)=C/C(C)C)C3C)CC1 (mixture of isomers) [Compound A52, (E/Z)-2-(5-((4-(4-(1,5-dimethyl-6-oxo-1,6-dihydropyridin-3-yl)-2,6-dimethoxybenzyl)piperazin-1-yl)methyl)-1-methyl-1,2,3,4-tetrahydroisoquinoline-2-carbonyl)-4-methylpent-2-enenitrile] | > 75% | 0.00125 to 0.01 µM |  | 
8 | COc1cc(-c2cn(C)c(=O)c(C)c2C)cc(OC)c1CN1CCN(Cc2cccc3c2CCN(C(=O)/C(C#N)=C/c2ccc(C(F)(F)F)cn2)C3C)CC1 (mixture of isomers) [Compound A54, (E/Z)-2-(5-((4-(2,6-dimethoxy-4-(1,4,5-trimethyl-6-oxo-1,6-dihydropyridin-3-yl)benzyl)piperazin-1-yl)methyl)-1-methyl-1,2,3,4-tetrahydroisoquinoline-2-carbonyl)-3-(5-(trifluoromethyl)pyridin-2-yl)acrylonitrile] | 40 to 70% | 0.00125 to 0.01 µM |  | 
9 | COc1cc(-c2cn(C)c(=O)c(C)c2C)cc(OC)c1CN1CC2CCC(C1)N2Cc1cccc2c1CCN(C(=O)/C(C#N)=C/c1cccc(Br)n1)C2C (mixture of isomers) [Compound B8, (E/Z)-3-(6-bromopyridin-2-yl)-2-(5-((3-(2,6-dimethoxy-4-(1,4,5-trimethyl-6-oxo-1,6-dihydropyridin-3-yl)benzyl)-3,8-diazabicyclo[3.2.1]octan-8-yl)methyl)-1-methyl-1,2,3,4-tetrahydroisoquinoline-2-carbonyl)acrylonitrile] |  |  | 0.00125 to 0.01 µM | 40 to 70%

Further lines, with some results ahead:

Row | Dmax at 1 µM [1] | DC50 [2] | SMILES | DC50 (Assay protocol 1, read-out: DC50) | Dmax (HEK293, Assay protocol 1, read-out: Dmax)
10 | 40 to 70% | 0.01 to 0.025 µM | COc1cc(-c2cn(C)c(=O)c(C)c2C)cc(OC)c1CN1CCN(C(=O)CCc2ccc3c(c2)C(C)N(C(=O)/C(C#N)=C/c2nccs2)CC3)CC1 (mixture of isomers) [Compound A55, (E/Z)-2-(7(3-(4-(2,6-dimethoxy-4-(1,4,5-trimethyl-6-oxo-1,6-dihydropyridin-3-yl)benzyl)piperazin-1-yl)-3-oxopropyl)-1-methyl-1,2,3,4-tetrahydroisoquinoline-2-carbonyl)-3-(thiazol-2-yl)acrylonitrile] |  | 
11 | 40 to 70% | 0.01 to 0.025 µM | COc1cc(-c2cn(C)c(=O)c(C)c2C)cc(OC)c1CN1CCN(C(=O)CCc2ccc3c(c2)CCN(C(=O)/C(C#N)=C/c2nccs2)C3C)CC1 (mixture of isomers) [Compound A56, (E/Z)-2-(6-(3-(4-(2,6-dimethoxy-4-(1,4,5-trimethyl-6-oxo-1,6-dihydropyridin-3-yl)benzyl)piperazin-1-yl)-3-oxopropyl)-1-methyl-1,2,3,4-tetrahydroisoquinoline-2-carbonyl)-3-(thiazol-2-yl)acrylonitrile] |  | 
12 | > 75% | 0.00125 to 0.01 µM | COc1cc(-c2cn(C)c(=O)c(C)c2C)cc(OC)c1CN1CCN(C(=O)CCc2cccc3c2CCN(C(=O)/C(C#N)=C/c2nccs2)C3C)CC1 (mixture of isomers) [Compound A57, (E/Z)-2-(5-(3-(4-(2,6-dimethoxy-4-(1,4,5-trimethyl-6-oxo-1,6-dihydropyridin-4-yl)benzyl)piperazin-1-yl)-3-oxopropyl)-1-methyl-1,2,3,4-tetrahydroisoquinoline-2-carbonyl)-3-(thiazol-2-yl)acrylonitrile] |  | 
13 | 40 to 70% | 0.00125 to 0.01 µM | CCCC(c1ccc(CCC(=O)N2CCN(Cc3c(OC)cc(-c4cn(C)c(=O)c(C)c4C)cc3OC)CC2)cc1)N(C)C(=O)/C(C#N)=C/c1nccs1 (mixture of isomers) [Compound A58, (E/Z)-2-cyano-N-(1-(4-(3-(4-(2,6-dimethoxy-4-(1,4,5-trimethyl-6-oxo-1,6-dihydropyridin-3-yl)benzyl)piperazin-1-yl)-3-oxopropyl)phenyl)butyl)-N-methyl-3-(thiazol-2-yl)acrylamide] |  | 
14 | 70 to 75% | 0.00125 to 0.01 µM | COc1cc(-c2cn(C)c(=O)c3cnccc23)cc(OC)c1CN(C)Cc1ccc2c(c1)C(C)N(C(=O)/C(C#N)=C/c1cccc(Br)n1)CC2 (mixture of isomers) [Compound A59] |  | 
15 | > 75% | 0.00125 to 0.01 µM | COc1cc(-c2cn(C)c(=O)c(C)c2C)cc(OC)c1CN1CCN(Cc2cccc(C3CCCN3C(=O)/C(C#N)=C/c3cccc(Br)n3)c2)CC1 (mixture of isomers) [Compound A63, (E/Z)-3-(6-bromopyridin-2-yl)-2-(2-(3-((4-(2,6-dimethoxy-4-(1,4,5-trimethyl-6-oxo-1,6-dihydropyridin-3-yl)benzyl)piperazin-1-yl)methyl)phenyl)pyrrolidine-1-carbonyl) acrylonitrile] |  | 
16 | > 75% | 0.00125 to 0.01 µM | COc1cc(-c2cn(C)c(=O)c(C)c2C)cc(OC)c1CN1CC2CC1CN2Cc1cccc2c1CCN(C(=O)/C(C#N)=C/c1cccc(Br)n1)C2C (mixture of isomers) [Compound A64, (E/Z)-3-(6-bromopyridin-2-yl)-2-(5-((5-(2,6-dimethoxy-4-(1,4,5-trimethyl-6-oxo-1,6-dihydropyridin-3-yl)benzyl)-2,5-diazabicyclo[2.2.1]heptan-2-yl)methyl)-1-methyl-1,2,3,4-tetrahydroisoquinoline-2-carbonyl)acrylonitrile] |  | 
